Data published in BindingDB's records for doi:10.7270/Q2T43RJV (Nmmlsc, 2010).

Molecular target: Guanine nucleotide-binding protein G(o) subunit alpha (Homo sapiens, UniProt P09471)
Experiment: RGS4-Galphao interaction regulators, SAR follow-up, biochemical, multiplexed bead assay, additional SAR round (AID 2829)

Chain of Guanine nucleotide-binding protein G(o) subunit alpha (P09471 whole entry): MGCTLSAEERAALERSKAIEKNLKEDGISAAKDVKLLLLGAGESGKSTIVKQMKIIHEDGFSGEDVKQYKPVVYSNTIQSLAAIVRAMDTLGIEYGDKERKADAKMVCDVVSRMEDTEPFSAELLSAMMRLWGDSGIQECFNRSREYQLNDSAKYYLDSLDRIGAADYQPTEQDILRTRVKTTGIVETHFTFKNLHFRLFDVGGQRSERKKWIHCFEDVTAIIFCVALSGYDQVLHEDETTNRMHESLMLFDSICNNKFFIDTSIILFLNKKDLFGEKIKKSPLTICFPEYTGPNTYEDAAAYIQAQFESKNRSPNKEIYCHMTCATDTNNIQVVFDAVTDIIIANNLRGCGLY

Row | SMILES | EC50
1 | O=C(c1sc2cc([N+](=O)[O-])ccc2c1Cl)N1CCNCC1 | > 30 µM
2 | O=C(NCCCn1ccnc1)c1sc2cc([N+](=O)[O-])ccc2c1Cl [3-chloro-N-[3-(1-imidazolyl)propyl]-6-nitro-1-benzothiophene-2-carboxamide] | > 30 µM
3 | NC(=O)c1sc2cc([N+](=O)[O-])ccc2c1Cl [KSC-1-100] | > 30 µM

The remaining lines, values ahead:

Row | EC50 | SMILES
4 | > 30 µM | O=C(NCCCN1CCOCC1)c1sc2cc([N+](=O)[O-])ccc2c1Cl [3-chloranyl-N-(3-morpholin-4-ylpropyl)-6-nitro-1-benzothiophene-2-carboxamide]
5 | > 30 µM | Cc1ccc2c(Cl)c(C(=O)NCCCN3CCOCC3)sc2c1 [KUC103874N]
